Test results: patent US7049309B2, “3-Thia-4-arylquinolin-2-one potassium channel modulators” (Bristol-Myers Squibb Company, priority 2003, dated 2006)

Tests used:
[1] = system: rat small intestine (ileum) segments; experiment: Rat small intestine (ileum) strip relaxation (nifedipine-sensitive force); set-up: species or system rat (Sprague Dawley); settings: integral of nifedipine-sensitive force pre- and 30 min post-compound; compound concentration not given
Description: The ability of the compounds of the invention to relax rat small intestine tissue as a model for the treatment of irritable bowel syndrome is described as follows. Male rats (Harlan, Sprague Dawley, 250–350 g) were sacrificed by decapitation. A portion of small intestine (ileum) was removed and the attached connective tissues and intestinal contents removed. The ileum was cut into segments of ≧1 cm in length. The segments were mounted longitudinally between fixed hooks in organ baths containing warm (37° C.) physiological salt solution (composition in mM: NaCl 118.4, KCl 4.7, KH2PO4 1.2, MgSO4 1.2, CaCl2 1.8, Glucose 10.1, NaHCO3 25; gassed with 95% O2/5% CO2, pH 7.4). A stable tension of ˜1.5 g was maintained in the tissue segments during the equilibration period of 45 minutes. Changes in muscle tension were measured with isometric force transducers (Grass, FT-03C) and recorded using AcqKnowledge data acquisition system (AcqKnowledge for MP100WS, Biopac Systems Inc., Goleta, Calif.). Compound or vehicle was added in the baths for 30 minutes. “Zero” active force was established at the end of the experiment using nifedipine (20 μM). The effects of compounds or vehicle on force was determined by measuring the integral of nifedipine-sensitive force (including resting tone and spontaneous contractions) pre- and 30 min post-compound (or vehicle) addition. Results are expressed as the percentage inhibition of force. DMSO vehicle inhibited force (integral) by −0.6±3.0% (n=25).

[2] = system: cloned mammalian (mSlo or hSlo) BK channels heterologously expressed in Xenopus oocytes; experiment: Assay for BK channel openers: two-electrode voltage clamp of BK-mediated outward current in Xenopus oocytes; type: cell-based; settings: percent increase over BK current in controls, voltage step to +140 mV, IBTX-sensitive current
Description: The ability of the compounds of the invention to open BK channels and increase whole-cell outward (K^+) BK-mediated currents was assessed under voltage-clamp conditions by determining their ability to increase cloned mammalian (mSlo or hSlo) BK-mediated outward current heterologously expressed in Xenopus oocytes [Butler, A., et al., Science 1993, 261, 221–224; Dworetzky, S. I., et al., Mol. Brain Res. 1994, 27, 189–193; Gribkoff, V. K., et al., Mol. Pharmacol. 1996, 50, 206–217]. The two BK constructs employed represent nearly structurally identical homologous proteins, and have proven to be pharmacologically indistinguishable in our tests. To isolate BK current from native (background, non-BK) current, the specific and potent BK channel-blocking toxin iberiotoxin (IBTX) [Galvez, A., et al., J. Biol. Chem. 1990, 265, 11083–11090] was employed at a supramaximal concentration, e.g., 50–100 nanomolar (“nM”). The relative contribution of BK channel-mediated current to total outward current was determined by subtraction of the current remaining in the presence of IBTX (non-BK current) from the current profiles obtained in all other experimental conditions (control, drug, and wash) [Gribkoff, V. K. et al., Mol. Pharmacol. 1996, 50, 206–217]. […] All compounds were tested in 5–10 oocytes and are reported at the indicated concentration of 20 micromolar (“μM”) (or as otherwise indicated); the effect of the selected compounds of the invention on BK current was expressed as the percent of control IBTX-sensitive current at a single transmembrane voltage (+140 mV) and is listed in Table 1. Recordings were accomplished using standard two-electrode voltage clamp techniques [Stuhmer, W., et al., Methods in Enzymology, 1992, 207, 319–339]; voltage-clamp protocols consisted of 500–750 milliseconds (“ms”) duration step depolarizations, from a holding potential of −60 mV, to a final voltage up to +140 mV in 20 mV steps. The experimental media (modified Barth's solution) consisted of millimolar (“mM”): NaCl (88), NaHCO3 (2.4), KCl (1.0), HEPES (10), MgSO4 (0.82), Ca(NO3)2 (0.33), CaCl2 (0.41); pH 7.5.

Compound	% inhibition of force (RSI strips) [1] [%]	% MaxiK opening ([2]; at 20 μM) [%]	% MaxiK opening ([2]; at 1 μM)
CCN(CC)CC(O)CSc1c(-c2cc(Cl)ccc2O)c2cc(C(F)(F)F)ccc2[nH]c1=O (stereo not shown) [Example 74, 4-(5-Chloro-2-hydroxyphenyl)-3-[[3-(diethylamino)-2-hydroxypropyl]thio]-6-(trifluoromethyl)-2(1H)-quinolinone]	46	192	–
COc1ccc(Cl)cc1-c1c(SCC(O)CN2CCC(O)C2)c(=O)[nH]c2ccc(C(F)(F)F)cc12 (stereo not shown) [Example 91, 4-(5-Chloro-2-methoxyphenyl)-3-[[2-hydroxy-3-(3-hydroxy-1-pyrrolidinyl)propyl]thio]-6-(trifluoromethyl)-2(1H)-quinolinone]	–	125	–
O=c1[nH]c2ccc(C(F)(F)F)cc2c(-c2cc(Cl)ccc2O)c1SCC(O)CN1CCOCC1 (stereo not shown) [Example 82, 4-(5-Chloro-2-hydroxyphenyl)-3-[[2-hydroxy-3-(4-morpholinyl)propyl]thio]-6-(trifluoromethyl)-2(1H)-quinolinone]	–	292	–
CN1CCN(CCC(O)CSc2c(-c3cc(Cl)ccc3O)c3cc(C(F)(F)F)ccc3[nH]c2=O)CC1 (stereo not shown) [Example 4, 4-(5-Chloro-2-hydroxyphenyl)-3-[[2-hydroxy-4-(4-methyl-1-piperazinyl)butyl]thio]-6-(trifluoromethyl)-2(1H)-quinolinone]	–	515	–
CN(C)CCCN(C)CC(O)CSc1c(-c2cc(Cl)ccc2O)c2cc(C(F)(F)F)ccc2[nH]c1=O (stereo not shown) [Example 87, 4-(5-Chloro-2-hydroxyphenyl)-3-[[3-[[3-(dimethylamino)propyl]methylamino]-2-hydroxypropyl]thio]-6-(trifluoromethyl)-2(1H)-quinolinone]	–	214	–
O=c1[nH]c2ccc(C(F)(F)F)cc2c(-c2cc(Cl)ccc2O)c1SCC(O)CN1CCCC1 (stereo not shown) [Example 81, 4-(5-Chloro-2-hydroxyphenyl)-3-[[2-hydroxy-3-(1-pyrrolidinyl)propyl]thio]-6-(trifluoromethyl)-2(1H)-quinolinone]	–	192	–
CN(C)CCN1CCN(CC(O)CSc2c(-c3cc(Cl)ccc3O)c3cc(C(F)(F)F)ccc3[nH]c2=O)CC1 (stereo not shown) [Example 86, 4-(5-Chloro-2-hydroxyphenyl)-3-[[3-[4-[2-(dimethylamino)ethyl]-1-piperazinyl]-2-hydroxypropyl]thio]-6-(trifluoromethyl)-2(1H)-quinolinone]	–	124	–
COc1ccc(Cl)cc1-c1c(SCC(O)CN2CCSCC2)c(=O)[nH]c2ccc(C(F)(F)F)cc12 (stereo not shown) [Example 90, 4-(5-Chloro-2-methoxyphenyl)-3-[[2-hydroxy-3-(4-thiomorpholinyl)propyl]thio]-6-(trifluoromethyl)-2(1H)-quinolinone]	–	97	–
O=c1[nH]c2ccc(C(F)(F)F)cc2c(-c2cc(Cl)ccc2O)c1SCC(O)CN1CCSCC1 (stereo not shown) [Example 85, 4-(5-Chloro-2-hydroxyphenyl)-3-[[2-hydroxy-3-(4-thiomorpholinyl)propyl]thio]-6-(trifluoromethyl)-2(1H)-quinolinone]	40	319	–
COc1ccc(Cl)cc1-c1c(SCC(O)CN2CCN(C(C)=O)CC2)c(=O)[nH]c2ccc(C(F)(F)F)cc12 (stereo not drawn) [Example 97, 4-Acetyl-alpha-[[[4-(5-chloro-2-methoxyphenyl)-1,2-dihydro-2-oxo-6-(trifluoromethyl)-3-quinolinyl]thio]methyl]-1-piperazineethanol]	–	192	–
COc1ccc(Cl)cc1-c1c(SCC(O)CN2CCC(C)CC2)c(=O)[nH]c2ccc(C(F)(F)F)cc12 (stereo not shown) [Example 107, 4-(5-Chloro-2-methoxyphenyl)-3-[[2-hydroxy-3-(4-methyl-1-piperidinyl)propyl]thio]-6-(trifluoromethyl)-2(1H)-quinolinone]	–	115	–
COc1ccc(Cl)cc1-c1c(SCC(O)CN2CCN(c3ncccn3)CC2)c(=O)[nH]c2ccc(C(F)(F)F)cc12 (stereo not shown) [Example 92, 4-(5-Chloro-2-methoxyphenyl)-3-[[2-hydroxy-3-[4-(2-pyrimidinyl)-1-piperazinyl]propyl]thio]-6-(trifluoromethyl)-2(1H)-quinolinone]	–	–	85^⋄ %
COc1ccc(Cl)cc1-c1c(SCC(O)CN2CCN(C)CC2)c(=O)[nH]c2ccc(C(F)(F)F)cc12 (stereo not shown) [Example 102, 4-(5-Chloro-2-methoxyphenyl)-3-[[2-hydroxy-3-(4-methyl-1-piperazinyl)propyl]thio]-6-(trifluoromethyl)-2(1H)-quinolinone]	–	163	–
O=c1[nH]c2ccc(C(F)(F)F)cc2c(-c2cc(Cl)ccc2O)c1SCC(O)CN1CCN(CCO)CC1 (stereo not shown) [Example 84, 4-(5-Chloro-2-hydroxyphenyl)-3-[[2-hydroxy-3-[4-(2-hydroxyethyl)-1-piperazinyl]propyl]thio]-6-(trifluoromethyl)-2(1H)-quinolinone]	55	287	–
COc1ccc(Cl)cc1-c1c(SCC(O)CN2CCN(CCO)CC2)c(=O)[nH]c2ccc(C(F)(F)F)cc12 (stereo not shown) [Example 79, 4-(5-Chloro-2-methoxyphenyl)-3-[[2-hydroxy-3-[4-(2-hydroxyethyl)-1-piperazinyl]propyl]thio]-6-(trifluoromethyl)-2(1H)-quinolinone]	10	150	–
